From the supplement of paper PMC10307832

What was measured:
Test in all cases: relative viability (nuclei count vs DMSO), 5 days (fraction); higher = more cells survive
Linsitinib + Foretinib = compound: C[C@]1(O)C[C@@H](c2nc(-c3ccc4ccc(-c5ccccc5)nc4c3)c3c(N)nccn32)C1 [Linsitinib] + COc1cc2c(Oc3ccc(NC(=O)C4(C(=O)Nc5ccc(F)cc5)CC4)cc3F)ccnc2cc1OCCCN1CCOCC1 [Foretinib] (partner 0.25 µM)
Summary of the method: (§1)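 The day after seeding in 1536-well plates, lung cancer cell lines were treated by pin tool with a single drug, or with a fixed anchor-drug dose together with five library-drug doses (not always all listed) in √10 steps. After 5 days, a combined fix-and-stain solution (final 0.05% Triton X-100, 1% formaldehyde, 1 ug/ml Hoechst) was added. Nuclei counted on 4× images gave relative viability as treated counts over vehicle counts, reported as the median of duplicate plates.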

Ispinesib + Alpelisib = compound: Cc1ccc(C(=O)N(CCCN)[C@@H](c2nc3cc(Cl)ccc3c(=O)n2Cc2ccccc2)C(C)C)cc1 [Ispinesib] + Cc1nc(NC(=O)N2CCC[C@H]2C(N)=O)sc1-c1ccnc(C(C)(C)C(F)(F)F)c1 [Alpelisib] (partner 2 µM)
Summary of the method: as §1

Ispinesib + Palbociclib = compound: Cc1ccc(C(=O)N(CCCN)[C@@H](c2nc3cc(Cl)ccc3c(=O)n2Cc2ccccc2)C(C)C)cc1 [Ispinesib] + CC(=O)c1c(C)c2cnc(Nc3ccc(N4CCNCC4)cn3)nc2n(C2CCCC2)c1=O [Palbociclib] (partner 0.5 µM)
Summary of the method: as §1

Ispinesib + Olaparib = compound: Cc1ccc(C(=O)N(CCCN)[C@@H](c2nc3cc(Cl)ccc3c(=O)n2Cc2ccccc2)C(C)C)cc1 [Ispinesib] + O=C(c1cc(Cc2n[nH]c(=O)c3ccccc23)ccc1F)N1CCN(C(=O)C2CC2)CC1 [Olaparib] (partner 8 µM)
Summary of the method: as §1

Cell Line | relative viability (Linsitinib + Foretinib; first compound 0.01 µM) | relative viability (Linsitinib + Foretinib; first compound 0.03162 µM) | relative viability (Linsitinib + Foretinib; first compound 0.1 µM) | relative viability (Linsitinib + Foretinib; first compound 0.3162 µM) | relative viability (Linsitinib + Foretinib; first compound 1 µM) | relative viability (Ispinesib + Alpelisib; first compound 0.001 µM) | relative viability (Ispinesib + Alpelisib; first compound 0.003162 µM) | relative viability (Ispinesib + Alpelisib; first compound 0.01 µM) | relative viability (Ispinesib + Alpelisib; first compound 0.03162 µM) | relative viability (Ispinesib + Alpelisib; first compound 0.1 µM) | relative viability (Ispinesib + Palbociclib; first compound 0.001 µM) | relative viability (Ispinesib + Palbociclib; first compound 0.003162 µM) | relative viability (Ispinesib + Palbociclib; first compound 0.01 µM) | relative viability (Ispinesib + Palbociclib; first compound 0.03162 µM) | relative viability (Ispinesib + Palbociclib; first compound 0.1 µM) | relative viability (Ispinesib + Olaparib; first compound 0.001 µM) | relative viability (Ispinesib + Olaparib; first compound 0.003162 µM) | relative viability (Ispinesib + Olaparib; first compound 0.01 µM) | relative viability (Ispinesib + Olaparib; first compound 0.03162 µM) | relative viability (Ispinesib + Olaparib; first compound 0.1 µM)
NCI-H1651 | 0.7 | 0.81 | 0.753 | 0.683 | 0.734 | 0.957 | 0.99 | 1.26 | 1.05 | 0.206 | 0.526 | 0.57 | 0.61 | 0.518 | 0.576 | 0.183 | 0.217 | 0.179 | 0.169 | 0.19
H3255 | 0.796 | 0.907 | 0.944 | 0.682 | 0.976 | 0.677 | 0.8 | 0.736 | 0.492 | 0.33 | 0.309 | 0.339 | 0.347 | 0.294 | 0.291 | 0.589 | 0.597 | 0.541 | 0.46 | 0.394
Calu-6 | 0.826 | 0.768 | 0.837 | 0.799 | 0.726 | 1.04 | 0.901 | 0.551 | 0.134 | 0.145 | – | – | – | – | – | 0.56 | – | 0.422 | 0.193 | 0.192
NCI-H522 | – | – | – | – | – | – | – | – | – | – | 1 | 0.965 | 1.01 | 0.903 | 1.02 | 0.634 | 0.585 | 0.779 | 0.571 | 0.555
NCI-H650 | 1.04 | 1.08 | 0.969 | 0.782 | 0.966 | 1.11 | 1.23 | 1.29 | 1.05 | 0.353 | 0.301 | 0.309 | 0.361 | 0.324 | 0.335 | 0.361 | 0.384 | 0.409 | 0.427 | 0.278
NCI-H460 | 1.02 | 1.05 | 0.969 | 0.935 | 1.02 | 0.584 | 0.45 | 0.667 | 0.0767 | 0.0288 | 0.288 | 0.181 | 0.184 | 0.0542 | 0.0736 | 0.538 | 0.504 | 0.436 | 0.597 | 0.195
NCI-H2228 | 0.86 | 0.845 | 0.735 | 0.746 | 0.619 | 0.632 | 0.582 | 1.14 | 0.522 | 0.325 | 1 | 1.05 | 1.08 | 0.544 | 0.386 | 0.857 | 0.717 | 0.543 | 0.418 | 0.327
NCI-H2085 | 0.883 | 0.889 | 0.931 | 0.891 | 0.898 | 0.997 | 1.04 | 1.04 | 1.02 | 0.688 | 0.384 | 0.411 | 0.481 | 0.469 | 0.402 | 0.747 | 0.779 | 0.845 | 0.792 | 0.544
NCI-H1650 | 1.2 | 0.902 | 1.12 | 0.697 | 1.03 | – | – | – | – | – | 0.368 | 0.346 | 0.3 | 0.172 | 0.254 | 0.953 | 0.743 | 0.82 | 0.701 | 0.195
NCI-H1648 | – | – | – | – | – | – | – | – | – | – | 0.285 | 0.297 | 0.248 | 0.291 | 0.256 | 1.04 | 1.07 | 0.751 | 0.889 | 0.0854
NCI-H2342 | 1.06 | 1.05 | 1.06 | 1.01 | 0.959 | – | – | – | – | – | 0.571 | 0.539 | 0.556 | 0.541 | 0.522 | 0.413 | 0.423 | 0.423 | 0.453 | 0.328
EBC-1 | 0.115 | 0.109 | 0.0995 | 0.106 | 0.104 | 0.77 | 0.861 | 0.931 | 0.244 | 0.274 | – | – | – | – | – | 0.772 | 0.725 | 0.792 | 0.669 | 0.171
ChaGo-K-1 | 0.853 | 0.903 | 0.85 | 0.762 | 0.882 | – | – | – | – | – | 0.8 | 1.01 | 1.11 | 0.985 | 0.845 | 0.399 | 0.449 | 0.431 | 0.445 | 0.382
IA-LM | 1.12 | 1.06 | 0.867 | 0.783 | 1.07 | 0.742 | 0.904 | 1.09 | 0.11 | 0.158 | – | – | – | – | – | 0.916 | 0.938 | 1.15 | 1.02 | 0.155
NCI-H1703 | 0.356 | – | 0.379 | 0.513 | 0.267 | 0.352 | 0.322 | 0.224 | 0.0938 | 0.135 | – | – | – | – | – | 0.601 | 0.312 | 0.246 | 0.127 | 0.105
A549 | 0.97 | 0.953 | 0.999 | 0.695 | 0.875 | 0.655 | 0.761 | 1.08 | 0.0901 | 0.0827 | – | – | – | – | – | 0.417 | 0.276 | 0.37 | 0.194 | 0.0705
HCC-44 | – | – | – | – | – | 0.805 | 0.878 | 1.11 | 0.822 | 0.234 | 0.996 | 0.985 | 0.978 | 0.999 | 0.948 | 0.984 | 0.993 | 1.03 | 1.06 | 0.938
NCI-H1623 | 0.871 | 0.913 | 0.85 | – | 0.671 | – | – | – | – | – | – | – | – | – | – | – | – | – | – | –
NCI-H596 | 0.831 | 0.978 | 0.873 | 0.871 | 0.858 | 0.563 | 0.427 | 0.583 | 0.458 | 0.394 | – | – | – | – | – | 0.652 | 0.629 | 0.638 | 0.671 | 0.571
NCI-H1563 | 0.865 | 0.984 | 0.98 | 0.98 | 0.903 | 0.972 | 0.949 | 0.944 | 0.838 | 0.705 | – | – | – | – | – | – | – | – | – | –
NCI-H1792 | – | – | – | – | – | 0.838 | 0.68 | 0.692 | 0.393 | 0.44 | 0.725 | 0.762 | 0.859 | 0.686 | 0.301 | 0.385 | 0.394 | 0.252 | 0.53 | 0.152
